The values that follow come from US20240285670A1, “THERAPEUTIC TREATMENT OF TUMORS BY BLOCKING THE HEME SYNTHESIS-EXPORT AXIS” (Università degli Studi di Torino, priority 2021, published 2024).

One series deals with C80 cells. Description: Activity of mitochondrial ETC complexes I-IV in C80 cells. Format: cell-based, human. The settings on record: FLVCR1a-silenced vs scramble shRNA C80 cells. From the text: (A, C, E) Activities of the mitochondrial electron transport chain complexes I-IV. FLVCR1a-silenced Caco2 (A), SKCO1 (C) or C80 cells (E) are compared to cells expressing a scramble shRNA. Results were expressed as nmol NAD^+/min/mg mitochondrial protein for complex I, nmol reduced cytochrome c/min/mg mitochondrial protein for complexes II-III, nmol oxidized cytochrome c/min/mg mitochondrial protein for complex IV. Data represent mean±SEM, n=3. For statistical analyses, an unpaired Student's t-test was used; *=p<0.05, **=p<0.01. (B, D, F) Mitochondrial ATP levels measured by a bioluminescent assay kit. FLVCR1a-silenced Caco2 (B), SKCO1 (D) or C80 cells (F) are compared to cells expressing a scramble shRNA. Results are expressed as nmol/mg mitochondrial proteins. Data represent mean±SEM, n=3. […] Results were expressed as nmol NAD^+/min/mg mitochondrial protein for complex I, nmol reduced cytochrome c/min/mg mitochondrial protein for complexes II-III, nmol oxidized cytochrome c/min/mg mitochondrial protein for complex IV. […] (H) Mitochondrial ATP levels measured by a bioluminescent assay kit in Caco2 cells overexpressing FLVCR1a (indicated as FLVCR1a+) compared to cells stably transduced with an empty vector. Results are expressed as nmol/mg mitochondrial proteins. […]
The activity of mitochondria respiration complexes was measured according to (Wibom et al., 2002).

For a further series, the system named is SKCO1 cells. Description: Flow cytometric analysis of apoptosis in SKCO1 cells. Format: cell-based, human. The note with it: FLVCR1a-silenced vs scramble shRNA, synchronized SKCO1 cells. From the text: (A) Proliferation of Caco2 cells assessed by crystal violet staining at the indicated days; bar=1000 μm. […] Staining quantification is reported in the bar graph as percentage of crystal violet stained area. Data represent mean±SEM, n=4. For statistical analyses, a two-way analysis of variance was used, followed by the Bonferroni correction for multiple group comparisons; *=p<0.05, ***=p<0.001. (B) Caco2 cells viability the day of plating (day 0) and three days after plaiting (day 3). The measure is considered a readout of cell proliferation. […] Data represent mean±SEM, n=3 wells. For statistical analyses, a two-way analysis of variance was used, followed by the Bonferroni correction for multiple group comparisons; *=p<0.05, **=p<0.01. (C, D, E) Representative flow cytometric analyses of apoptosis in synchronized Caco2 (C), SKCO1 (D) and C80 (E) cells. […] Data represent mean±SEM, n=4 wells pooled from two independent experiments. For statistical analyses, an unpaired Student's t-test was used; *=p<0.05, **=p<0.01. […]
Stained cells were analyzed using a FACSCanto II cytofluorimeter and processed with BD FACSDIVA Software v8.1 (BD Biosciences, Milan, IT; http://www.bdbiosciences.com/instruments/software/facsdiva/index.jsp/ RRID:SCR_001456), acquiring at least 10,000 events per sample or 25,000 cells per sample for cell cycle experiments.

As to “FLVCR1a shRNA: shRNA specifically down-regulating FLVCR1a without targeting FLVCR1b; pLKO.1 lentiviral clone TRCN0000059599, antisense SEQ ID No.: 2 (antisense TTGCTAATGATGCTGTACTGG; sense CCAGTACAGCATCATTAGCAA)”, the ETC complexes activity entry in the series on C80 cells is given as “increased ETC complexes activity”. The apoptosis result with SKCO1 cells is “increased apoptosis”.
